Reference: patent US20180214428A1, “3-(1H-INDOL-2-YL)-1H-PYRAZOLO[3,4-B]PYRIDINES AND THERAPEUTIC USES THEREOF” (Samumed, LLC, priority 2015, published 2018)

Tests used:
SW480 colon cancer cells = assay: Cell viability assay (CellTiter-Blue) in SW480 colon cancer cells; assay type: cell-based, human; settings: Homo sapiens, 96 h, four days, CellTiter-Blue
Method in brief: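 Resazurin reduction (Ex 560/Em 590 nm, ~3 h reagent incubation) served as the viability read-out after SW480 cells were treated for four days at 37 °C. Doses ran from 10 μM down to 0.0045 μM in eight 1:3 steps. Curves fitted non-linearly for EC50, else % inhibition at 10 μM reported.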

[1] = test system: primary human mesenchymal stem cells (hMSCs); assay: Induction of chondrogenesis in primary human mesenchymal stem cells; assay type: cell-based; settings: Homo sapiens, Mesenchymal stem cells, 144 h, 6 days; for Emax: chondrogenic nodules, TGF-β3 (10 ng/mL) positive control, read-out: Max. Activity as % TGF-β3 activity; for EC50: concentration required to induce 50% levels of chondrogenesis vs TGF-β3, read-out: Conc (nM) of 50% TGF-β3 activity
Protocol: Representative compounds were screened using primary human mesenchymal stem cells (hMSCs) to determine their ability to induce chondrogenesis (process by which cartilage is developed).
Primary human mesenchymal stem cells (hMSCs) were purchased from Lonza (Walkersville, Md.) and expanded in Mesenchymal Stem Cell Growth Media (Lonza). Cells between passage 3 and 6 were used for the experiments.
Each compound was dissolved in DMSO as a 10 mM stock and used to prepare compound source plates. Serial dilution (1:3, 6-point dose-response curves from 2700 nM to 10 nM) and compound transfer was performed using the ECHO 550 (Labcyte, Sunnyvale, Calif.) into 96-well clear bottom assay plates (Greiner Bio-One) with appropriate DMSO backfill for a final DMSO concentration of 0.03%. hMSCs were plated at 20,000 cells/well in 250 μL/well Incomplete Chondrogenic Induction Medium (Lonza; DMEM, dexamethasone, ascorbate, insulin-transferrin-selenium [ITS supplement], gentamycin-amphotericin [GA-1000], sodium pyruvate, proline and L-glutamine). TGF-β3 (10 ng/mL) was used as a positive control for differentiation while negative control wells were treated with 75 nL DMSO for normalization and calculating EC50 values. Cells were incubated at 37° C. and 5% CO2 for 6 days. To image chondrogenic nodules, the cells were fixed using 4% formaldehyde (Electron Microscopy Sciences), and stained with 2 μg/mL Rhodamine B (Sigma-Aldrich) and 20 μM Nile Red (Sigma-Aldrich) [Johnson K., et. al, A Stem Cell-Based Approach to Cartilage Repair, Science, (2012). 336(6082), 717-721]. The nodules imaged (4 images per well at 4× magnification) by excitation at 531 nm and emission at 625 nm and quantified using the CellInsight CX5 (Thermo Scientific). Number of nodules in each well was normalized to the average of 3 DMSO treated wells on the same plate using Excel (Microsoft Inc.). The normalized averages (fold change over DMSO) of 3 replicate wells for each compound concentration were calculated. Due to solubility limitations of some of the compounds, curve fitting was incomplete leading to inaccurate EC50 determinations.
Using TGF-β3 as a positive control, the concentration of representative compounds required to induce 50% levels of chondrogenesis is reported. In addition, the maximum activity of each compound and the respective dose that each compound reached maximum chondrogenesis activity is reported.

[2] = test system: Wnt activity (Sp5-Luc reporter gene, SW480 colon carcinoma cells); assay: Screening assay for Wnt activity: Sp5-Luc reporter gene assay in SW480 cells; assay type: cell-based, human; settings: Homo sapiens, overnight incubation
Method in brief: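 SW480 cells stably transduced with a luciferase reporter driven by an Sp5 promoter of eight TCF/LEF sites were plated at 4,000 cells/well in 1% FBS medium. They were exposed overnight at 37° C to a 10-point 1:3 dilution series from 10 μM (0.1% DMSO). Luminescence was normalized to DMSO for four-parameter EC50, or percent inhibition at 10 μM.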

SMILES	EC50 (SW480 colon cancer cells) [nM]	Emax [1] [%]	EC50 [2] [nM]	EC50 [1] [nM]
O=C(Nc1cncc(-c2cnc3[nH]nc(-c4cc5c(-c6cccnc6)cccc5[nH]4)c3c2)c1)C1CCC1 [Compound 89, N-(5-(3-(4-(Pyridin-3-yl)-1H-indol-2-yl)-1H-pyrazolo[3,4-b]pyridin-5-yl)pyridin-3-yl)cyclobutanecarboxamide]	565	41	230	
FC1(F)CCN(Cc2cncc(-c3cnc4[nH]nc(-c5cc6c(-c7ccncc7)cccc6[nH]5)c4c3)c2)C1 [Compound 118, 5-(5-((3,3-Difluoropyrrolidin-1-yl)methyl)pyridin-3-yl)-3-(4-(pyridin-4-yl)-1H-indol-2-yl)-1H-pyrazolo[3,4-b]pyridine]	4140	29	708	
Nc1cncc(-c2cnc3[nH]nc(-c4cc5c(-c6ccccn6)cccc5[nH]4)c3c2)c1 [Compound 121, 5-(3-(4-(Pyridin-2-yl)-1H-indol-2-yl)-1H-pyrazolo[3,4-b]pyridin-5-yl) pyridin-3-amine]	726	117	174	900
CCNCc1cncc(-c2cnc3[nH]nc(-c4cc5c(-c6ccccn6)cccc5[nH]4)c3c2)c1 [Compound 124, N-((5-(3-(4-(Pyridin-2-yl)-1H-indol-2-yl)-1H-pyrazolo[3,4-b]pyridin-5-yl)pyridin-3-yl)methyl)ethanamine]	4910	32	7010	
O=C(Nc1cncc(-c2cnc3[nH]nc(-c4cc5c(-c6ccccn6)cccc5[nH]4)c3c2)c1)c1ccccc1 [Compound 128, N-(5-(3-(4-(Pyridin-2-yl)-1H-indol-2-yl)-1H-pyrazolo[3,4-b]pyridin-5-yl)pyridin-3-yl)benzamide]	701	565	390	300
c1ccc(-c2cccc3[nH]c(-c4n[nH]c5ncc(-c6cncc(CN7CCCC7)c6)cc45)cc23)nc1 [Compound 131, 3-(4-(Pyridin-2-yl)-1H-indol-2-yl)-5-(5-(pyrrolidin-1-ylmethyl)pyridin-3-yl)-1H-pyrazolo[3,4-b]pyridine]	1190	161	4530	
CC(C)(C)CC(=O)Nc1cncc(-c2cnc3[nH]nc(-c4cc5c(-c6ccccn6)cccc5[nH]4)c3c2)c1 [Compound 133, 3,3-Dimethyl-N-(5-(3-(4-(pyridin-2-yl)-1H-indol-2-yl)-1H-pyrazolo[3,4-b]pyridin-5-yl)pyridin-3-yl)butanamide]	3250	345	1010	900
CCCCC(=O)Nc1cncc(-c2cnc3[nH]nc(-c4cc5c(-c6ccccn6)cccc5[nH]4)c3c2)c1 [Compound 136, N-(5-(3-(4-(Pyridin-2-yl)-1H-indol-2-yl)-1H-pyrazolo[3,4-b]pyridin-5-yl)pyridin-3-yl)pentanamide]	4710	41	385	
c1ccc(-c2cccc3[nH]c(-c4n[nH]c5ncc(-c6cncnc6)cc45)cc23)nc1 [Compound 143, 3-(4-(Pyridin-2-yl)-1H-indol-2-yl)-5-(pyrimidin-5-yl)-1H-pyrazolo[3,4-b]pyridine]	9910	25	2020	
CCNCc1cncc(-c2cnc3[nH]nc(-c4cc5c(N6CCCCC6)cccc5[nH]4)c3c2)c1 [Compound 150, N-((5-(3-(4-(Piperidin-1-yl)-1H-indol-2-yl)-1H-pyrazolo[3,4-b]pyridin-5-yl)pyridin-3-yl)methyl)ethanamine]	2830	91	4640	30
CN(C)c1cncc(-c2cnc3[nH]nc(-c4cc5c(N6CCCCC6)cccc5[nH]4)c3c2)c1 [Compound 151, N,N-Dimethyl-5-(3-(4-(piperidin-1-yl)-1H-indol-2-yl)-1H-pyrazolo[3,4-b]pyridin-5-yl)pyridin-3-amine]	5260	22	982	
CN1CCN(c2cccc3[nH]c(-c4n[nH]c5ncc(-c6cncc(CN7CCCCC7)c6)cc45)cc23)CC1 [Compound 215, 3-(4-(4-Methylpiperazin-1-yl)-1H-indol-2-yl)-5-(5-(piperidin-1-ylmethyl)pyridin-3-yl)-1H-pyrazolo[3,4-b]pyridine]	3520	51	4750	300
CN1CCN(c2cccc3[nH]c(-c4n[nH]c5ncc(-c6cncc(NC(=O)C7CCCC7)c6)cc45)cc23)CC1 [Compound 222, N-(5-(3-(4-(4-Methylpiperazin-1-yl)-1H-indol-2-yl)-1H-pyrazolo[3,4-b]pyridin-5-yl)pyridin-3-yl)cyclopentanecarboxamide]	828	408	1040	100
c1ccc2[nH]c(-c3n[nH]c4ncc(-c5cncc(CN6CCCC6)c5)cc34)cc2c1 [Compound 240, 3-(1H-Indol-2-yl)-5-(5-(pyrrolidin-1-ylmethyl)pyridin-3-yl)-1H-pyrazolo[3,4-b]pyridine]	9320	98	1410	10
CCCC(=O)Nc1cncc(-c2cnc3[nH]nc(-c4cc5ccccc5[nH]4)c3c2)c1 [Compound 243, N-(5-(3-(1H-Indol-2-yl)-1H-pyrazolo[3,4-b]pyridin-5-yl)pyridin-3-yl) butyramide]	632	28	521	
FC1(F)CCN(Cc2cncc(-c3cnc4[nH]nc(-c5cc6c(-c7ccoc7)cccc6[nH]5)c4c3)c2)C1 [Compound 308, 5-(5-((3,3-Difluoropyrrolidin-1-yl)methyl)pyridin-3-yl)-3-(4-(furan-3-yl)-1H-indol-2-yl)-1H-pyrazolo[3,4-b]pyridine]	2990	72	1000	30
CC(C)CC(=O)Nc1cncc(-c2cnc3[nH]nc(-c4cc5c(-c6cc(F)cc(NCCN(C)C)c6)cccc5[nH]4)c3c2)c1 [Compound 424, N-(5-(3-(4-(3-((2-(Dimethylamino)ethyl)amino)-5-fluorophenyl)-1H-indol-2-yl)-1H-pyrazolo[3,4-b]pyridin-5-yl)pyridin-3-yl)-3-methylbutanamide]	376	63	304	
CN(C)CCNc1cc(F)cc(-c2cccc3[nH]c(-c4n[nH]c5ncc(-c6cncc(N)c6)cc45)cc23)c1 [Compound 425, N^1-(3-(2-(5-(5-Aminopyridin-3-yl)-1H-pyrazolo[3,4-b]pyridin-3-yl)-1H-indol-4-yl)-5-fluorophenyl)-N^2,N^2-dimethylethane-1,2-diamine]	527	101	293	900
CCNCc1cncc(-c2cnc3[nH]nc(-c4cc5c(-c6cc(F)cc(NCCN(C)C)c6)cccc5[nH]4)c3c2)c1 [Compound 428, N^1-(3-(2-(5-(5-((Ethylamino)methyl)pyridin-3-yl)-1H-pyrazolo[3,4-b]pyridin-3-yl)-1H-indol-4-yl)-5-fluorophenyl)-N^2,N^2-dimethylethane-1,2-diamine]	757	74	947	
CC(C)Nc1cncc(-c2cnc3[nH]nc(-c4cc5c(-c6cc(F)cc(NCCN(C)C)c6)cccc5[nH]4)c3c2)c1 [Compound 434, N^1-(3-Fluoro-5-(2-(5-(5-(isopropylamino)pyridin-3-yl)-1H-pyrazolo[3,4-b]pyridin-3-yl)-1H-indol-4-yl)phenyl)-N^2,N^2-dimethylethane-1,2-diamine]	394	56	312	
